Marks after values point to notes of the source that are not given here.
What was measured:
M. incognita eggs = assay: Microwell assay: eggs immersed in compounds, hatch and activity of hatched J2; assay type: in vivo, Meloidogyne incognita; details: 0.1%; for decrease in total hatch compared with the Tween control: Day 7; for % Active Day 2 / % Active Day 5 / % Active Day 7: J2 hatched from immersed eggs; for Hatch Day 2 / Hatch Day 5 / Hatch Day 7: hatched J2 per well, about 35 eggs per well
Description: (§1) All chemicals were used without further purification.
(§2) These are reported as 0.1% herein.
(§3) The nematodes were then incubated at 26° C. […] Two trials were conducted for each assay.
(§4) The assumptions of the model were checked.

[1] = system: H. glycines second-stage juveniles; assay: Microwell assay: previously hatched J2 immersed in compounds, activity and viability; details: for reduction in % viable J2 compared with the Tween control: Day 3 following water rinse; for % Active Day 1 / % Active Day 2: previously hatched J2 in aqueous solution; for viability at 0.1 %: Heterodera glycines, 72 h, read-out: % Viable Day 3 rinsed
Description: The isolate of H. glycines race 3, originally isolated in Maryland, was maintained on soybean (Glycine max cv. ‘Essex’). As previously described (Wen, Y., et al. Plant Disease, 103: 2191-2198 (2019)), the roots were gently rubbed in water to dislodge cysts and mature females. The egg suspensions were then poured through nested sieves (#20 over /#60; pore sizes 850 μm and 250 μm diam., respectively) into a 454 g/liter sucrose solution. After 15 min, the cysts and females and cysts that floated to the top were collected, rinsed in water, and crushed with a rubber stopper on a #60 sieve (250-μm diam. pore size) that was partially submerged in distilled water. The egg suspension was washed through nested #230 over #500 sieves (pore sizes 63 μm and 25-μm diam., respectively). The eggs were collected in distilled water, and J2 hatched as described above.
(§5) Compounds for the studies were purchased from three different companies: methyl benzoate, CAS Number 93-58-3, ≥99% purity; Tween 20, CAS Number: 9005-64-5; Tween 80, CAS Number: 9005-65-6; ethyl benzoate, CAS Number: 93-89-0, natural, ≥99% purity, FCC, FG; vinyl benzoate, CAS Number: 769-78-8, ≥99% purity; n-propyl benzoate, CAS Number: 2315-68-6, 99% purity; n-butyl benzoate, CAS Number: 136-60-7, 99% purity; benzyl benzoate, CAS Number: 120-51-4, natural, ≥99% purity, FCC, FG; methyl 2-methylbenzoate, CAS Number: 89-71-4, 99% purity; methyl 2-chlorobenzoate, CAS Number: 610-96-8, ≥98% purity; methyl 2-methoxybenzoate, CAS Number: 606-45-1, 99% purity and methyl 2-nitrobenzoate, CAS Number: 606-27-9, 98% purity were purchased from Sigma-Aldrich (St. Louis, Mo.). Compounds, iso-butyl benzoate, CAS Number 120-50-3, >98% purity; n-pentyl benzoate, CAS Number: 2049-96-9, ≥98% purity; and n-hexyl benzoate, CAS Number: 6789-88-4, ≥98% purity were purchased from Alfa Aesar (Tewksbury, Mass.). The compounds methyl 3-methoxybenzoate (methyl m-anisate), CAS Number: 5368-81-0; 97% and methyl 3-methylbenzoate (methyl m-toluate), CAS Number: 99-36-5, 97% purity were purchased from TCI America (Portland, Oreg.). All chemicals were used without further purification. Deionized water (DI) containing 1% emulsifier (v/v), Tween 20 and Tween 80, at 1:1 ratio was used to make different VOCs (volatile organic compounds) water solutions and also used as blank control.
(§6) For tests with individual compounds, the concentration of each compound was 0.1% before placement into wells; the final concentration in the wells was 0.095% after addition to eggs or J2 suspended in water. These are reported as 0.1% herein. An exception was Trial 2, M. incognita J2 activity and viability (Table 2): the final concentration was 0.1% after placement in wells. Low concentrations were selected for assays of combined compounds to determine if the combinations would increase nematotoxicity.
(§7) Laboratory assays were conducted in 96-well polystyrene plates following general procedures described in Wen et al. (2019). Each well received approximately 35 J2 (for previously hatched J2 assays) or 35 eggs that each contained either a first-stage juvenile (J1) or a J2. The plates were covered with plastic adhesive sealing film (Excel Scientific, Inc., Victorville Calif.) and then with the plate lids. Parafilm (Bemis, Neenah, Wis.) was used to seal the plates. The nematodes were then incubated at 26° C. […] Following the counts on Day 2, the treatments were removed and the J2 rinsed twice with SDW and incubated in the second rinse. […] Two trials were conducted for each assay.
Statistical analyses: The data were analyzed as either a general linear model using JMP or a generalized linear model for the best distribution to fit the residual using Proc Glimmix (Sas Institute). The assumptions of the model were checked. If not met, then appropriate statistical techniques were used so that data could met the assumptions of the models. In Sas, mean comparisons were done with Sidak adjusted p-values to hold the experiment-wise error at 0.05.

[2] = system: M. incognita second-stage juveniles; assay: as above; details: for % Active Day 1 / % Active Day 2: 0.1%, previously hatched J2 in aqueous solution; for viability at 0.1 % / mortality at 0.1 %: Meloidogyne incognita, 72 h; for viability at 0.1 %: read-out: % Viable Day 3 rinsed; for mortality at 0.1 %: read-out: nonviable (killed) J2
Description: Nematode cultures: As described in Meyer et al. (Meyer, S. L. F., et al., Nematropica, 46: 85-96 (2016)), M. incognita race 1 (originally isolated in Maryland) was maintained in a greenhouse (24° to 29° C.; natural and supplemental lighting combined for a 16-h daylength) on susceptible cayenne pepper (Capsicum annuum) TA-136′ plants. All greenhouse experiments described herein were conducted under the same conditions. Two to three months after pepper plant inoculation, egg masses were picked from roots. Eggs were separated by 5 min immersion in 0.6% sodium hypochlorite, followed by a rinse in sterile distilled water (SDW). To collect second-stage juveniles (J2) for microwell assays, the surface-sterilized eggs were placed in a hatching chamber (Spectra/Mesh Nylon Filter, openings 25-μm-diam.; Spectrum Laboratories Inc., Rancho Dominguez, Calif.) set in an autoclaved dish that was placed on a rotary shaker for 3 days at 35 rpm. For some M. incognita and H. glycines assays, 25 or […] kanamycin monosulfate (Phytotechnology Laboratories, Shawnee Mission, Kans.) was added to the hatching chamber to prevent growth of bacteria. The collected J2 were then rinsed with water to remove the kanamycin monosulfate.
as §5, §6, §7

Heterodera glycines eggs = assay: Microwell assay: eggs immersed in compounds, hatch and activity of hatched J2; assay type: in vivo; details: 0.1%; for % Active Day 2 / % Active Day 5 / % Active Day 7: J2 hatched from immersed eggs; for Hatch Day 2 / Hatch Day 5 / Hatch Day 7: hatched J2 per well, about 35 eggs per well; for pest or weed control at 0.1 %: Heterodera glycines, 168 h, read-out: egg hatch suppression compared with the Tween control
Description: as §1, §2, §3, §4

Row | SMILES | decrease in total hatch compared with the Tween control (M. incognita eggs) | % Active Day 2 (M. incognita eggs) | % Active Day 5 (M. incognita eggs) | % Active Day 7 (M. incognita eggs) | Hatch Day 2 (M. incognita eggs) | Hatch Day 5 (M. incognita eggs) | Hatch Day 7 (M. incognita eggs) | % Active Day 1 ([1]; 0.1%) | % Active Day 2 ([1]; 0.1%) | viability at 0.1 % [1] [%] | % Active Day 1 [2] | % Active Day 2 [2] | viability at 0.1 % [2] [%] | mortality at 0.1 % [2] [%] | % Active Day 2 (Heterodera glycines eggs) | % Active Day 5 (Heterodera glycines eggs) | % Active Day 7 (Heterodera glycines eggs) | Hatch Day 2 (Heterodera glycines eggs) | Hatch Day 5 (Heterodera glycines eggs) | Hatch Day 7 (Heterodera glycines eggs) | further results
1 | COC(=O)c1ccccc1Cl [M2CB, Methyl 2-chlorobenzoate] | ~95% | 0 ^c % | 0 e % | 0 ^c % | 1.7 ^d | 1.7 ^e | 2.3 ^e | 0.46 ^e % | 1.6 ^g % | 0.5 | 0 ^f % | 0 ^d % | 0 | 100 | 0 ^e % | 6.4 ^de % | 0 ^d % | 5.4 ^cd | 5.8 ^cd | 5.5 ^cd | reduction in % viable J2 compared with the Tween control ([1]; 0.1%): 99%; inactive J2 that hatched from the eggs (Heterodera glycines eggs; by Day 7): 100%; pest or weed control at 0.1 % (Heterodera glycines eggs; Day 7): 64 to 80%
2 | COC(=O)c1ccccc1C [M2MB, Methyl 2-methylbenzoate] |  | 45.3 ^ab % | 11.8 ^d % | 17.4 ^b % | 4.3 ^cd | 6.6 ^bcd | 7.6 ^cd | 50.4 ^c % | 52.7 ^bc % | 46.4 | 2.5 ^e % | 0 ^d % | 0 | 100 | 23.8 ^cd % | 24.3 ^cde % | 30.9 ^ab % | 6.6 ^bcd | 7.6 ^bcd | 7.4 ^bcd | 
3 | COC(=O)c1ccccc1OC [M2MOB, Methyl 2-methoxybenzoate] |  | 35.2 ^ab % | 32.5 ^cd % | 13.9 ^b % | 3.4 ^cd | 8.4 ^bc | 13.9 ^bc | 73.6 ^ab % | 66.3 ^ab % | 59.6 | 5.2 ^de % | 5.9 ^c % | 36.8 |  | 48.2 ^bc % | 43.0 ^abc % | 19.1 ^bc % | 8.7 ^abcd | 11.3 ^bc | 11.6 ^abc | decrease in % active J2 compared with the Tween control (M. incognita eggs; J2 hatched from eggs, 7-day incubation): 86%; % Viable Day 3 rinsed ([1]; 0.1%, after Day 2 water rinse): did not cause significant reductions; nonviable (killed) J2 ([2]; in vivo): killed more than half
4 | COC(=O)c1ccccc1[N+](=O)[O-] [M2NB, Methyl 2-nitrobenzoate] | about 58% | 29.5 ^b % | 15.2 ^d % | 18.7 ^b % | 5.0 ^bcd | 12.1 ^b | 19.5 ^b | 54.2 ^c % | 34.1 ^de % | 30 | 0 ^f % | 0 ^d % | 0 | 100 | 35.8 ^c % | 28.6 ^bcd % | 25.3 ^bc % | 9.1 ^abc | 10.2 ^bc | 10.0 ^bc | reduction in % viable J2 compared with the Tween control ([1]; 0.1%): 51%; % active J2 suppression compared with the Tween control (Heterodera glycines eggs; Day 7): 53%
5 | COC(=O)c1cccc(OC)c1 [M3MOB, Methyl 3-methoxybenzoate] |  | 0 ^c % | 0 ^e % | 0 ^c % | 2.0 ^cd | 2.7 ^de | 2.8 ^de | 12.2 ^d % | 10.4 ^g % | 11.1 | 0 ^f % | 0 ^d % | 0 | 100 | 0 ^e % | 0 ^f % | 6.9 ^bc % | 6.3 ^bcd | 6.4 ^bcd | 6.0 ^cd | pest or weed control at 0.1 % (Heterodera glycines eggs; Day 7): 64%

Reference: US20220183287A1, “METHODS FOR KILLING PESTS” (The United States of America, as represented by the …, priority 2020, published 2022)
